The experiment addresses T1, human ENPP1 enzymatic domain (Homo sapiens, UniProt P22413).
T1 construct: recombinant protein containing the human ENPP1 enzymatic domain; purchased Viva Biotech
T1 sequence (P22413 191-591 limits assumed): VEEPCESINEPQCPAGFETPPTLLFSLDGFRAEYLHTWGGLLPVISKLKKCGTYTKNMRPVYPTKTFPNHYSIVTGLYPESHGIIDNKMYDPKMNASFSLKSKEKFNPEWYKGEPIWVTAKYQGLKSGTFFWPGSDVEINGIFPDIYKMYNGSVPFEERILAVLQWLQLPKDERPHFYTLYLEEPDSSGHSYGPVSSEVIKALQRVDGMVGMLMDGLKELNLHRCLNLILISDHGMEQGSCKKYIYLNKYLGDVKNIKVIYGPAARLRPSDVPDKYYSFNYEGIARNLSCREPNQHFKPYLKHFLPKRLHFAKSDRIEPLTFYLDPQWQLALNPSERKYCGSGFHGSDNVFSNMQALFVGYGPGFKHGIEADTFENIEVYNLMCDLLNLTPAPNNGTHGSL
Kind of experiment: ENPP1 Enzymatic Inhibition Assay (2′3′-cGAMP substrate, AMP-Glo luminescence). It is filed as biochemical. As to conditions: 1 nM ENPP1, 20 uM 2′3′-cGAMP, 30 minutes at 37° C. Here is the method: The inhibition of ENPP1's phosphodiesterase activity were tested in a purified enzymatic assay using 2′3′-cyclic GAMP as a substrate which allowed for the release of cleaved AMP to be monitored using a luminescent assay.
Putative inhibitors were diluted in assay buffer (50 mM Tris pH 8.0, 250 mM NaCl, 0.5 mM CaCl2), 1 uM ZnCl2, 1% DMSO) and pre-incubated for 15 minutes at 37° C. with recombinant protein containing the human ENPP1 enzymatic domain (Viva Biotech). The enzymatic reaction was initiated upon addition of the 2′3′-cGAMP substrate. The final reaction concentrations were 1 nM ENPP1 and 20 uM 2′3′-cGAMP substrate in a 25 uL volume. Inhibitor concentrations ranged from 10 uM to 0.056 nM. The reaction was incubated for 30 minutes at 37° C.
After reacting for 30 minutes, the amount of AMP generated from the cleavage of 2′3′-cGAMP was determined using the Promega AMP-Glo method according to the manufacturer's protocol. First, AMP-Glo reagent 1 was added and incubated with the reaction mix for 1 hour at room temperature. Second, AMP Detection solution was added and the mixture was incubated for an additional hour. The luminescence of the mixture was read on a Perkin Elmer Ensight plate reader.
The maximum and minimum levels of ENPP1 activity were established using no inhibitor and no enzyme controls, respectively. The activity observed using ENPP1 inhibitors was quantified as the percent of activity relative to these controls. IC50 values were calculated using CDD Vault by fitting a sigmoidal variable slope nonlinear regression model to the data.
On to `COc1ccc2c(Nc3ccc([S@@](=N)(=O)NC[C@@H](C)O)cc3)ncnc2c1` [Compound 64, (S)-N-((R)-2-hydroxypropyl)-4-((7-methoxyquinazolin-4-yl)amino)benzenesulfonimidamide], for which the IC50 (usually the concentration needed to halve the response being measured) was below 10 nM. On to `COc1ccc2c(Nc3ccc([S@](=N)(=O)NC[C@H](O)C(C)(C)C)cc3)ccnc2c1` [Compound 59, (R)-N-((R)-2-hydroxy-3,3-dimethylbutyl)-4-((7-methoxyquinolin-4-yl)amino)benzenesulfonimidamide], for which the IC50 is below 10 nM. Turning to `COc1ccc2c(Nc3ccc([S@@](=N)(=O)N[C@@H](C)c4ccnn4C)cc3)ccnc2c1` [Compound 42, (S)-4-((7-methoxyquinolin-4-yl)amino)-N-((S)-1-(1-methyl-1 H-pyrazol-5-yl)ethyl)benzenesulfonimidamide], the IC50 is below 10 nM. The molecule `COc1ccc2c(Oc3ccc([S@@](=N)(=O)N[C@H](C)CO)cc3)ccnc2c1` [Compound 12, (S)-N-((R)-1-hydroxypropan-2-yl)-4-((7-methoxyquinolin-4-yl)oxy)benzenesulfonimidamide] came in with an IC50 below 10 nM. As for `COc1ccc2c(Nc3ccc([S@](=N)(=O)NCC4CC4)cc3)ccnc2c1` [Compound 19, (R)-N-(cyclopropylmethyl)-4-((7-methoxyquinolin-4-yl)amino)benzenesulfonimidamide], the figure is below 10 nM; as for `COc1ccc2c(Nc3ccc([S@](=N)(=O)N[C@H](C)CO)cc3)ccnc2c1` [Compound 35, (R)-N-((R)-1-hydroxypropan-2-yl)-4-((7-methoxyquinolin-4-yl)amino)benzenesulfonimidamide], below 10 nM; as for `COc1ccc2c(Oc3ccc([S@](=N)(=O)NC[C@H](O)C(C)(C)C)cc3)ccnc2c1` [Compound 43, (R)-N-((R)-2-hydroxy-3,3-dimethylbutyl)-4-((7-methoxyquinolin-4-yl)oxy)benzenesulfonimidamide], below 10 nM. `COc1ccc2c(Nc3ccc([S@@](=N)(=O)NCCO)cc3)ccnc2c1` [Compound 54, (S)-N-(2-hydroxyethyl)-4-((7-methoxyquinolin-4-yl)amino)benzenesulfonimidamide] registered an IC50 below 10 nM.

The molecule `CN[S@](=N)(=O)c1ccc(Nc2ncnc3cc(OC)ccc23)cc1` [Compound 16, (S)-4-((7-methoxyquinazolin-4-yl)amino)-N-methylbenzenesulfonimidamide] came in with an IC50 below 10 nM. The figure for `COc1ccc2c(Nc3ccc([S@@](=N)(=O)NC[C@H](C)O)cc3)ccnc2c1` [Compound 38, (S)-N-((S)-2-hydroxypropyl)-4-((7-methoxyquinolin-4-yl)amino)benzenesulfonimidamide] is below 10 nM; for `COc1ccc2c(Nc3ccc([S@@](=N)(=O)NC[C@H](O)C(C)(C)C)cc3)ccnc2c1` [Compound 60, (S)-N-((R)-2-hydroxy-3,3-dimethylbutyl)-4-((7-methoxyquinolin-4-yl)amino)benzenesulfonimidamide] it is below 10 nM; for `COc1ccc2c(Oc3ccc([S@](=N)(=O)NCC4CC4)cc3)ccnc2c1` [Compound 13, (R)-N-(cyclopropylmethyl)-4-((7-methoxyquinolin-4-yl)oxy)benzenesulfonimidamide] it is above 100 nM. As for `COc1ccc2c(Oc3ccc([S@@](=N)(=O)NCCO)cc3)ccnc2c1` [Compound 4, (S)-N-(2-hydroxyethyl)-4-((7-methoxyquinolin-4-yl)oxy)benzenesulfonimidamide], the figure is below 10 nM; as for `COc1ccc2c(Nc3ccc([S@](=N)(=O)NC[C@H](C)O)cc3F)ccnc2c1` [Compound 45, (R)-3-fluoro-N-((S)-2-hydroxypropyl)-4-((7-methoxyquinolin-4-yl)amino)benzenesulfonimidamide], 10 to 100 nM. `COc1ccc2c(Oc3ccc([S@@](=N)(=O)NC[C@H](O)CO)cc3)ccnc2c1` [Compound 34, (S)-N-((S)-2,3-dihydroxypropyl)-4-((7-methoxyquinolin-4-yl)oxy)benzenesulfonimidamide] yielded an IC50 below 10 nM.

The values above are taken from patent US20240382474A1, “ENPP1 MODULATORS AND USES THEREOF” (Vir Biotechnology, Inc., priority 2021, published 2024).
